Data taken from PubChem BioAssay AID449750 (Broad Institute, 2010).
Active and inactive are the calls of the source. The rule behind the calls is not given here.

experiment: non-covalent RecA intein splicing inhibitors, dose response, biochemical, cell-free, fluorescence, secondary screen (AID 449750)

Compound | AC50
CC1=NN(c2ccc(Cl)cc2)C(=O)C1C(c1cccc(O)c1)c1c(C)[nH]n(-c2ccc(Cl)cc2)c1=O (centres undefined) | 7.91 µM
CCN(c1ccccc1)c1cc2ccccc2c(=O)[nH]1 | > 38 µM (inactive)
Cc1nn(-c2ccccc2)c(Cl)c1CN(C(=O)CCl)c1ccc(Cl)cc1 | 1.28 µM
Cc1cc(C)cc(OC(=O)CS(=O)c2ccc(C(F)(F)F)cc2[N+](=O)[O-])c1 (centres undefined) | > 38 µM (inactive)
Cc1nc(Nc2ccc(O)cc2)c2c3c(sc2n1)CCCC3 | > 38 µM (inactive)
O=C(O)CN1C(=O)/C(=C\c2cccc(OCc3ccc(Cl)cc3Cl)c2)SC1=S | 6.45 µM
COc1ccc(CC2=CC(=O)c3ccccc3C2=O)cc1 | 6.95 µM
CCCCCOP(=O)(OCCCCC)C1(NS(=O)(=O)c2ccccc2)C=CC(=O)c2ccccc21 (centres undefined) | 6.5 µM
O=[N+]([O-])c1c(NCCCO)cc(SCc2ccco2)c2nonc12 | > 38 µM (inactive)
COc1ccc(NC(=S)NC(NC(=O)CCl)C(Cl)(Cl)Cl)c([N+](=O)[O-])c1 (centres undefined) | 2.67 µM
N#Cc1ccc(-n2c(-c3ccccc3)nnc2-c2ccccc2)cc1C#N | > 38 µM (inactive)
COC(=O)CN1C(c2ccc(Cl)cc2)=Nc2ccc(Cl)cc2C1c1ccccc1 (centres undefined) | 5.48 µM
Cc1ccc(NC(=O)CSc2ncnc3ccccc23)cc1S(=O)(=O)N1CCCCCC1 | 30.2 µM
CC1=NN(c2ccccc2)C(=O)/C1=C/c1c(O)n(-c2ccc(F)c(Cl)c2)[nH]c1=O | 10.3 µM
COc1ccc(Br)cc1[C@H]1[C@@H]2C=CCC[C@@]2(C)C(=O)N1Cc1ccccc1 | > 38 µM (inactive)
CC(C)(C)c1csc(NC(=O)c2c(F)c(F)c(F)c(F)c2F)n1 | 16.3 µM
CCCC1C(C#N)=C(N)Oc2n[nH]c(C(C)(C)C)c21 (centres undefined) | 1.7 µM
CCOC(=O)c1[nH]c(=O)c2ccccc2c1O | 2.65 µM
CC(C)c1nnc(NC(=O)c2nc(S(=O)(=O)Cc3ccccc3F)ncc2Cl)s1 | > 38 µM (inactive)
CC(=O)C12CC(C)=C(C)CC1CC1C3CCC4=CC(=O)CCC4(C)C3CCC12C (centres undefined) | 4.58 µM
CCCCCCCN(C(=O)CCl)c1ccccc1C | 1.89 µM
N#C/C(=C/c1ccc2c(c1)OCO2)C(=O)Nc1ccc(O)cc1 | > 38 µM (inactive)
COc1ccc(CNc2ccc3cn[nH]c3c2)c(OC)c1OC | 14 µM
Cc1cccc(NC2=C(NC(=O)c3ccccc3)C(=O)c3ccccc3C2=O)c1 | 9.5 µM
Cn1ncnc2c(=O)n(C)c(=O)nc1-2 | 0.0837 µM
CCN(CC)CCN1C(=O)c2cccc3cc(N)cc(c23)C1=O | 1.69 µM
COc1ccc(C(=O)Nc2ccc(O)c3ccccc23)cc1 | 3.85 µM

Compound | AC50
COc1ccc(/C=C2\SC(=S)N(CCCC(=O)Nc3ccc(O)cc3)C2=O)cc1 | > 38 µM (inactive)
COc1ccc(NC(=O)/C(Cl)=C(/Cl)S(=O)(=O)Cc2ccc(C)cc2)cn1 | 35.2 µM
Cn1c(=O)c([N+](=O)[O-])c(-n2ccnc2)c2ccccc21 | > 38 µM (inactive)
Cc1cc(C)n2nc(CNS(=O)(=O)c3c(F)c(F)c(F)c(F)c3F)nc2n1 | > 38 µM (inactive)
CCN(CC)S(=O)(=O)c1cc(NC(=O)Cn2ncc(Cl)c(Cl)c2=O)ccc1C | 38.7 µM
COc1cc(C=C(c2nc3ccccc3s2)c2nc3ccccc3s2)ccc1O | 3.26 µM
CC(=O)N(C1=C(N)C(=O)c2ccccc2C1=O)c1ccccc1 | 10.6 µM
C/C(CC(=O)Nc1cc(C)ccn1)=N\NC(=O)COc1cccc(C)c1 | 11.1 µM
COc1ccc(S(=O)(=O)c2cnc3ccccc3n2)cc1 | > 38 µM (inactive)
Cc1c(C#N)c(NC(=O)CCl)n(Cc2ccccc2)c1C | 7.6 µM
Cn1cnc([N+](=O)[O-])c1Oc1ccc2ccccc2c1 | > 38 µM (inactive)
Cc1ccc(C(=O)NC2(O)C(=O)c3ccccc3C2=O)cc1C | 6.09 µM
O=C1Cc2ccccc2C(=O)N1Cc1ccccc1 | > 38 µM (inactive)
CCN(CC)CCN1C(=O)C(O)=C(C(C)=O)C1c1ccccc1[N+](=O)[O-] (centres undefined) | 37.7 µM
COc1ccc(C(=O)n2nnc3ccccc32)cc1Br | > 38 µM (inactive)
Nc1ccc(N2CCCCC2)c2nonc12 | 15.9 µM
O=C1CC(CSc2ccc(Cl)cc2)=NN1 | 25 µM
CCCCCCN(C(=O)CCl)c1ccccc1 | 3.5 µM
CC1=NN(c2ccccc2)C(=O)C1 | 3.24 µM
O=C(Cc1cc(=O)[nH][nH]1)N/N=C/c1cccc(Cl)c1Cl | 20 µM
COc1ccccc1NC1=C(Cl)C(=O)OC1OC(=O)c1ccco1 (centres undefined) | > 38 µM (inactive)
CC1=NN(Cc2ccccc2)C(=O)C1C(c1ccncc1)C(C#N)C#N (centres undefined) | > 38 µM (inactive)
COc1ccc(C(c2c(C)[nH][nH]c2=O)c2c(C)[nH][nH]c2=O)cc1Br | 11.2 µM
CCn1c(COc2cccc3ccccc23)nnc1SCC(N)=O | > 38 µM (inactive)
CC(=O)n1cc(N(C(=O)CCl)c2ccc(C)cc2)c2ccccc21 | 1.38 µM
O=C(CCl)Nc1cc(S(=O)(=O)N2CCCCCC2)ccc1Cl | 4.92 µM
O=c1[nH]c2ccc(Cl)cc2c(-c2ccccc2)c1SC(=S)N1CCCCC1 | > 38 µM (inactive)
